How the values were obtained:
Assay in all cases: MIC, microdilution, clinical strains
Type in all cases: cell-based
[1] = test system: clinical strains of Acinetobacter baumannii; set-up: unit: μg/ml; conditions: 0.02% BSA, 0.2% acetic acid
Method: (§1) Minimum inhibition concetrations (MICs) were determined against Escherichia coli (ATCC 25922), Staphylococcus aureus (ATCC 25923), Klebsiella pneumoniae (ATCC 10031) and Pseudomonas aeruginosa (ATCC 27853). Also clinical strains of E. coli, K. pneumoniae, E. cloacae, P. aeruginosa, Serratia marcescens, Proteus mirabilis, S. pneumoniae, Acinetobacter baumannii, A. johnsonii and S. aureus were used for MICs assays. Additionally, clinical strains of yeast including Candida albicans, C. glabrata, C. parapsilosis and C. quillermondiae were used. The susceptibility of these microorganisms to Chain peptides were determined using micro broth dilution assay. Colonies of the respective microorganism from Muller Hinton (MH) agar plates incubated overnight were suspended in MH broth media and final concentration of microorganism was adjusted to 5.0×10^5 cfu/ml. An aliquot of 10 μl of each Chain peptide, or gentamicin, tetracycline as reference antibiotics were added in differing concentrations along with 90 μl of bacterial suspension to 96 well polypropylene plates and incubated at 37° C. for 20 to 24 hours. Concentrations of Chain peptides and reference antibiotics ranged from 0.125 to 128 μg/ml and the MICs were recorded as the lowest concentration with no visual growth of bacteria. Similarly, antifungal MICs were tested in Potato dextrose broth.
(§2) Clinical strains of yeasts including Candida albicans, C. glabrata, C. parapsilosis and C. quillermondiae were also tested with the 12 Chain peptides. The minimum inhibitory concentration (MICs) varied between these peptides and are presented in Tables 4a, 4b, 4c and 5a, 5b, 5c. Peptides Chain 105, 201 and 308 are broad spectrum antimicrobials with MICs between 0.5-32 μg/ml against all the bacteria and yeasts tested, except Serratia marcescens and Proteus mirabilis, against which the MICs were between 64-128 μg/ml. Peptide Chain 306 has narrow spectrum activity against E. coli at 1 μg/ml and for the rest of the bacterial strains at >32 μg/ml (FIG. 10c).

[2] = test system: clinical strains of A. johnsonii; set-up: unit: μg/ml; conditions: Acinetobacter johnsonii strain 1, Muller Hinton broth-cation adjusted, 0.02% BSA, 0.2% acetic acid
Method: as §1, §2

[3] = test system: clinical strains of K. pneumoniae; conditions: 0.02% BSA, 0.2% acetic acid
In short: (§3)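 Overnight MH agar colonies were suspended in MH broth to 5.0×10^5 cfu/ml, mixed with serial peptide dilutions (0.125–128 μg/ml) and incubated at 37° C for 20 to 24 hours. Yeast MICs were run the same way in potato dextrose broth, and wells were scored visually.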

[4] = test system: clinical strains of E. cloacae; conditions: 0.02% BSA, 0.2% acetic acid
In short: as §3

[5] = test system: clinical strains of E. coli; conditions: microdilution, Muller Hinton broth-cation adjusted, 0.02% BSA, 0.2% acetic acid
In short: as §3

[6] = test system: clinical strains of Proteus mirabilis; conditions: 0.02% BSA, 0.2% acetic acid
In short: as §3

[7] = test system: clinical strains of S. aureus; conditions: 0.02% BSA, 0.2% acetic acid
In short: as §3

[8] = test system: clinical strains of P. aeruginosa; conditions: 0.02% BSA, 0.2% acetic acid
In short: as §3

[9] = test system: clinical strains of S. pneumoniae; conditions: 0.02% BSA, 0.2% acetic acid
In short: as §3

[10] = test system: clinical strains of Serratia marcescens; conditions: 0.02% BSA, 0.2% acetic acid
In short: as §3

Gentamicin [reference compound]
Minimum inhibitory concentration ([1]; Acinetobacter baumannii strain 1, Muller Hinton broth-cation adjusted): 0.5 | Minimum inhibitory concentration ([1]; Acinetobacter baumannii strain 2, Muller Hinton broth-cation adjusted): 0.25 | Minimum inhibitory concentration ([1]; Acinetobacter baumannii strain 3, Muller Hinton broth-cation adjusted): 0.5 | Minimum inhibitory concentration ([1]; Acinetobacter baumannii strain 4, Muller Hinton broth-cation adjusted): 0.5 | Minimum inhibitory concentration ([1]; Acinetobacter baumannii strain 5, Muller Hinton broth-cation adjusted): 0.25 | Minimum inhibitory concentration [2]: 0.25 | Minimum inhibitory concentration ([3]; Klebsiella pneumoniae strain 1, Muller Hinton broth-cation adjusted): 2 | Minimum inhibitory concentration ([3]; Klebsiella pneumoniae strain 2, Muller Hinton broth-cation adjusted): 0.25 | Minimum inhibitory concentration ([3]; Klebsiella pneumoniae strain 3, Muller Hinton broth-cation adjusted): 2 | Minimum inhibitory concentration ([3]; Klebsiella pneumoniae strain 4, Muller Hinton broth-cation adjusted): 2 | Minimum inhibitory concentration ([3]; Klebsiella pneumoniae strain 5, Muller Hinton broth-cation adjusted): 4 | Minimum inhibitory concentration ([4]; Enterobacter cloacae strain 1, Muller Hinton broth-cation adjusted): 0.25 | Minimum inhibitory concentration ([4]; Enterobacter cloacae strain 2, Muller Hinton broth-cation adjusted): 0.25 | Minimum inhibitory concentration ([4]; Enterobacter cloacae strain 3, Muller Hinton broth-cation adjusted): 0.25 | Minimum inhibitory concentration ([4]; Enterobacter cloacae strain 4, Muller Hinton broth-cation adjusted): 0.25 | Minimum inhibitory concentration ([4]; Enterobacter cloacae strain 5, Muller Hinton broth-cation adjusted): 0.25 | Minimum inhibitory concentration ([5]; Escherichia coli strain 1): 0.5 | Minimum inhibitory concentration ([5]; Escherichia coli strain 2): 0.5 | Minimum inhibitory concentration ([5]; Escherichia coli strain 3): 1 | Minimum inhibitory concentration ([5]; Escherichia coli strain 4): 1 | Minimum inhibitory concentration ([5]; Escherichia coli strain 5): 1 | Minimum inhibitory concentration ([6]; Proteus mirabilis strain 1, Muller Hinton broth-cation adjusted): 2 | Minimum inhibitory concentration ([6]; Proteus mirabilis strain 2, Muller Hinton broth-cation adjusted): 2 | Minimum inhibitory concentration ([6]; Proteus mirabilis strain 3, Muller Hinton broth-cation adjusted): >128 | Minimum inhibitory concentration ([6]; Proteus mirabilis strain 4, Muller Hinton broth-cation adjusted): 8 | Minimum inhibitory concentration ([6]; Proteus mirabilis strain 5, Muller Hinton broth-cation adjusted): >128 | Minimum inhibitory concentration ([7]; Staphylococcus aureus strain 1, Muller Hinton broth-cation adjusted): 0.5 | Minimum inhibitory concentration ([7]; Staphylococcus aureus strain 2, Muller Hinton broth-cation adjusted): 0.5 | Minimum inhibitory concentration ([7]; Staphylococcus aureus strain 3, Muller Hinton broth-cation adjusted): 0.5 | Minimum inhibitory concentration ([7]; Staphylococcus aureus strain 4, Muller Hinton broth-cation adjusted): 0.5 | Minimum inhibitory concentration ([7]; Staphylococcus aureus strain 5, Muller Hinton broth-cation adjusted): 0.5 | Minimum inhibitory concentration ([8]; Pseudomonas aeruginosa strain 1, Muller Hinton broth-cation adjusted): 1 | Minimum inhibitory concentration ([8]; Pseudomonas aeruginosa strain 2, Muller Hinton broth-cation adjusted): 0.5 | Minimum inhibitory concentration ([8]; Pseudomonas aeruginosa strain 3, Muller Hinton broth-cation adjusted): 0.5 | Minimum inhibitory concentration ([8]; Pseudomonas aeruginosa strain 4, Muller Hinton broth-cation adjusted): 0.5 | Minimum inhibitory concentration ([8]; Pseudomonas aeruginosa strain 5, Muller Hinton broth-cation adjusted): 0.25 | Minimum inhibitory concentration ([9]; Streptococcus pneumoniae strain 1, Muller Hinton broth-cation adjusted): 2 | Minimum inhibitory concentration ([9]; Streptococcus pneumoniae strain 2, Muller Hinton broth-cation adjusted): 2 | Minimum inhibitory concentration ([9]; Streptococcus pneumoniae strain 3, Muller Hinton broth-cation adjusted): 2 | Minimum inhibitory concentration ([9]; Streptococcus pneumoniae strain 4, Muller Hinton broth-cation adjusted): 2 | Minimum inhibitory concentration ([9]; Streptococcus pneumoniae strain 5, Muller Hinton broth-cation adjusted): 1 | Minimum inhibitory concentration ([10]; Serratia marcescens strain 1, Muller Hinton broth-cation adjusted): 1 | Minimum inhibitory concentration ([10]; Serratia marcescens strain 2, Muller Hinton broth-cation adjusted): 2 | Minimum inhibitory concentration ([10]; Serratia marcescens strain 3, Muller Hinton broth-cation adjusted): 1 | Minimum inhibitory concentration ([10]; Serratia marcescens strain 4, Muller Hinton broth-cation adjusted): 1 | Minimum inhibitory concentration ([10]; Serratia marcescens strain 5, Muller Hinton broth-cation adjusted): 1

Reference: patent publication US10457710B2, “Antimicrobial peptides, their variants and uses” (priority 2015, dated 2019)
